We go through five compounds from the NIST ThermoML archive (doi:10.1016/j.tca.2004.11.004).

Numbers after ± are expanded uncertainties.

For data set [1] the following is noted: Crystal; DTA.
Data set [2] in a line: Molar enthalpy of transition or fusion. The conditions noted are these: Crystal; DSC.

Consider `CC(=O)[O-].[Li+]` [lithium acetate], for which the Normal melting temperature in data set [1] was 283.5 ± 0.4 °C. Besides, the “Molar enthalpy of transition or fusion” value in data set [2] came out at 3.01 ± 0.0956 kcal/mol.
The corresponding values for `CC(=O)[O-].[K+]` [potassium ethanoate] are 305.2 ± 0.4 °C and 2.87 ± 0.0956 kcal/mol.
For `CC(=O)[O-].[Rb+]` [rubidium acetate], in that order: 240.5 ± 0.4 °C and 2.13 ± 0.191 kcal/mol.
The corresponding values for `CC(=O)[O-].[Na+]` [sodium ethanoate] are 329.4 ± 0.4 °C and 4.16 ± 0.0956 kcal/mol.
Regarding `CC(=O)[O-].[Cs+]` [cesium acetate], the Normal melting temperature in data set [1] came out at 191.6 ± 0.4 °C. The “Molar enthalpy of transition or fusion” value in data set [2] was 2.63 ± 0.0956 kcal/mol.
